SMILES strings stand for the structures.

One may read the IC50 as the concentration that gives 50% inhibition.

The first assay deals with AGS cells (KRAS^G12D). In words: Detection of cell proliferation in vitro by MTT/MTS method (cell activity experiment). The format is cell-based. The conditions noted are these: AGS cells; MTT/MTS; 3 days of drug treatment; read-out: AGS IC50. The method in brief: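 After 3-day compound exposure (final DMSO 0.5%), viability of AGS (KRAS G12D) cells, plated 1000/well one day before dosing, was measured at 490 nm following 4 h MTT or MTS incubation. IC50 was fitted from dose–effect curves relative to DMSO-treated wells.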
Turning to `C#Cc1c(F)ccc2cc(O)cc(-c3ccc4c(N5C[C@H]6CC[C@@H](C5)[C@@H]6N)nc(OC[C@@]56CCCN5C[C@H](F)C6)nc4c3F)c12` [Example 128, 4-(4-((1R,5S,8R)-8-amino-3-azabicyclo [3.2.1]octan-3-yl)-8-fluoro-2-(((2R,7aS)-2-fluorotetrahydro-1H-pyrrolizin-7a(5H)-yl)methoxy)quinazolin-7-yl)-5-ethynyl-6-fluoronaphthalen-2-ol], the IC50 was more than 2.5 µM.

The assay is the same for the next values; noted with them: Homo sapiens, AGS, 72 h, AGS cells; MTT/MTS; 3 days of drug treatment; read-out: AGS IC50.
As to `Cc1cc(N)nc(-c2ncc3c(N4C[C@H]5CC[C@@H](C4)N5)nc(OCC4(CN5CCCC5)CC4)nc3c2F)c1C1CC1` [Example 9, 6-(4-((1R,5S)-3,8-diazabicyclo[3.2.1]octan-3-yl)-8-fluoro-2-((1-(pyrrolidin-1-ylmethyl)cyclopropyl)methoxy)pyrido[4,3-d]pyrimidin-7-yl)-5-cyclopropyl-4-methylpyridin-2-amine], the IC50 is more than 1 µM.

On to `CCc1cccc2cc(O)cc(-c3ccc4c(N5C[C@H]6CC[C@@H](C5)N6)c(C#N)c(OC[C@@]56CCCN5C[C@H](F)C6)nc4c3F)c12` [Example 181, 4-((1R,5S)-3,8-diazabicyclo[3.2.1]octan-3-yl)-7-(8-ethyl-3-hydroxynaphthalen-1-yl)-8-fluoro-2-(((2R,7aS)-2-fluorotetrahydro-1H-pyrrolizin-7a(5H)-yl)methoxy)quinoline-3-carbonitrile], for which the 50% inhibitory concentration (IC50) stood at 0.536 µM.

`Oc1cc(Cl)c(C2CC2)c(-c2ncc3c(N4C[C@H]5CC[C@@H](C4)N5)nc(OCC4(CN5CCCC5)CC4)nc3c2F)c1` [Example 10, 3-(4-((1R,5S)-3,8-diazabicyclo[3.2.1]octan-3-yl)-8-fluoro-2-((1-(pyrrolidin-1-ylmethyl)cyclopropyl)methoxy)pyrido[4,3-d]pyrimidin-7-yl)-5-chloro-4-cyclopropylphenol]: the IC50 was found to be 0.017 µM.

On to `CCc1c(F)ccc2cc(O)cc(-c3ncc4c(C5C[C@H]6CC[C@@H](C5)N6)nc(OC[C@@]56CCCN5C[C@H](F)C6)nc4c3F)c12` (stereo partly drawn) [Example 80, 4-(4-((1R,5S)-8-azabicyclo[3.2.1]octan-3-yl)-8-fluoro-2-(((2R,7aS)-2-fluorotetrahydro-1H-pyrrolizin-7a(5H)-yl)methoxy)pyrido[4,3-d]pyrimidin-7-yl)-5-ethyl-6-fluoronaphthalen-2-ol], for which the IC50 was more than 2.5 µM.

As for `C#Cc1c(F)ccc2cc(O)cc(-c3ccc4c(N5C[C@H]6CC[C@@H](C5)N6)c(C(F)(F)F)c(OC[C@@]56CCCN5C[C@H](F)C6)nc4c3F)c12` [Example 185, 4-(4-((1R,5S)-3,8-diazabicyclo[3.2.1]octan-3-yl)-8-fluoro-2-(((2R,7aS)-2-fluorotetrahydro-1H-pyrrolizin-7a(5H)-yl)methoxy)-3-(trifluoromethyl)quinolin-7-yl)-5-ethynyl-6-fluoronaphthalen-2-ol], the IC50 worked out at 1.35 µM.

On to `Oc1cc2c(c(-c3ncc4c(N5C[C@H]6CC[C@@H](C5)N6)nc(OC[C@@]56CCCN5C[C@H](F)C6)nc4c3F)c1)C1CC1C2` (stereo partly drawn) [Example 73, 2-(4-((1R,5S)-3,8-diazabicyclo[3.2.1]octan-3-yl)-8-fluoro-2-(((2R,7aS)-2-fluorotetrahydro-1H-pyrrolizin-7a(5H)-yl)methoxy)pyrido[4,3-d]pyrimidin-7-yl)-1,1a, 6,6a-tetrahydrocyclopropa [a]inden-4-ol], for which the concentration for half-maximal inhibition (IC50) turned out to be 0.0169 µM.

On to `O=C1CCc2cc(O)cc(-c3ccc4c(N5C[C@H]6CC[C@@H](C5)N6)nc(OC[C@@]56CCCN5C[C@H](F)C6)nc4c3F)c21` [Example 297, 7-(4-((1R,5S)-3,8-diazabicyclo[3.2.1]octan-3-yl)-8-fluoro-2-(((2R,7aS)-2-fluorotetrahydro-1H-pyrrolizin-7a(5H)-yl)methoxy)quinazolin-7-yl)-5-hydroxy-2,3-dihydro-1H-inden-1-one], for which the IC50 was more than 2.5 µM.

As to `CCc1csc2cc(O)cc(-c3ncc4c(N5C[C@H]6CC[C@@H](C5)N6)nc(OC[C@@]56CCCN5C[C@H](F)C6)nc4c3F)c12` [Example 348, 4-(4-((1R,5S)-3,8-diazabicyclo[3.2.1]octan-3-yl)-8-fluoro-2-(((2R,7aS)-2-fluorotetrahydro-1H-pyrrolizin-7a(5H)-yl)methoxy)pyrido[4,3-d]pyrimidin-7-yl)-3-ethylbenzo[b]thiophen-6-ol], the IC50 amounted to 0.085 µM.

On to `CC1OCCc2cc(O)cc(-c3ncc4c(N5C[C@H]6CC[C@@H](C5)N6)nc(OC[C@@]56CCCN5C[C@H](F)C6)nc4c3F)c21` (stereo partly drawn) [Example 356, 8-(4-((1R,5S)-3,8-diazabicyclo[3.2.1]octan-3-yl)-8-fluoro-2-(((2R,7aS)-2-fluorotetrahydro-1H-pyrrolizin-7a(5H)-yl)methoxy)pyrido[4,3-d]pyrimidin-7-yl)-1-methylisochroman-6-ol], for which the IC50 came out at 0.021 µM.

For the compound `Oc1cc(-c2ccc3c(N4C[C@H]5CC[C@@H](C4)N5)nc(OC[C@@]45CCCN4C[C@H](F)C5)nc3c2)c2c(F)c(F)ccc2c1` [Example 150, 4-(4-((1R,5S)-3,8-diazabicyclo[3.2.1]octan-3-yl)-2-(((2R, 7aS)-2-fluorotetrahydro-1H-pyrrolizin-7a(5H)-yl)methoxy)quinazolin-7-yl)-5,6-difluoronaphthalen-2-ol], the IC50 was determined as 0.33 µM.

As for `C#Cc1c(F)ccc2cc(O)cc(-c3c(Cl)cc4c(N5C[C@H]6CC[C@@H](C5)N6)nc(OC[C@@]56CCCN5C[C@H](F)C6)nc4c3OC3CC3)c12` [Example 330, 4-(4-((1R,5S)-3,8-diazabicyclo[3.2.1]octan-3-yl)-6-chloro-8-cyclopropoxy-2-(((2R,7aS)-2-fluorotetrahydro-1H-pyrrolizin-7a(5H)-yl)methoxy)quinazolin-7-yl)-5-ethynyl-6-fluoronaphthalen-2-ol], the IC50 amounted to 0.195 µM.

Regarding `C#Cc1cccc2cc(O)cc(-c3ccc4c(N5CC6CCCC(C5)N6)nc(OC[C@@]56CCCN5C[C@H](F)C6)nc4c3F)c12` [Example 106, 4-(4-(3,9-diazabicyclo [3.3.1]nonan-3-yl)-8-fluoro-2-(((2R,7aS)-2-fluorotetrahydro-1H-pyrrolizin-7a(5H)-yl)methoxy)quinazolin-7-yl)-5-ethynylnaphthalen-2-ol], the IC50 is 0.12 µM.

Consider `C#Cc1c(F)ccc2cc(O)cc(-c3ncc4c(N5C[C@H]6CC[C@@H](C5)N6)nc(OCC56CCCC5N(C)CC6)nc4c3F)c12` (stereo partly drawn) [Example 74, 4-(4-((1R,5S)-3,8-diazabicyclo [3.2.1]octan-3-yl)-8-fluoro-2-((1-methylhexahydrocyclo-penta[b]pyrrol-3a(1H)-yl)methoxy)pyrido[4,3-d]pyrimidin-7-yl)-5-ethynyl-6-fluoronaphthalen-2-ol], for which the IC50 is more than 2.5 µM.

For the compound `C#Cc1c(F)ccc2cc(O)cc(-c3c(Cl)cc4c(N5C[C@H]6CC[C@@H](C5)N6)nc(OC[C@@]56CCCN5C[C@H](F)C6)nc4c3OCC(F)(F)F)c12` [Example 331, 4-(4-((1R,5S)-3,8-diazabicyclo[3.2.1]octan-3-yl)-6-chloro-2-(((2R,7aS)-2-fluorotetrahydro-1H-pyrrolizin-7a(5H)-yl)methoxy)-8-(2,2,2-trifluoroethoxy)quinazolin-7-yl)-5-ethynyl-6-fluoronaphthalen-2-ol], the half-maximal inhibitory concentration (IC50) came to 0.823 µM.

For the compound `C#Cc1c(F)ccc2cc(O)cc(-c3ncc4c(C5C[C@H]6CC[C@@H](C5)N6)nc(OC[C@@]56CCCN5C[C@H](F)C6)nc4c3F)c12` (stereo partly drawn) [Example 79, 4-(4-((1R,5S)-8-azabicyclo[3.2.1]octan-3-yl)-8-fluoro-2-(((2R,7aS)-2-fluorotetrahydro-1H-pyrrolizin-7a(5H)-yl)methoxy)pyrido[4,3-d]pyrimidin-7-yl)-5-ethynyl-6-fluoronaphthalen-2-ol], the IC50 was more than 2.5 µM.

As for `Oc1cc(-c2ncc3c(N4C[C@H]5CC[C@@H](C4)S5)nc(OC[C@@]45CCCN4C[C@H](F)C5)nc3c2F)c2c(F)c(F)ccc2c1` [Example 27, 4-(4-((1R,5S)-8-thia-3-azabicyclo[3.2.1]octan-3-yl)-8-fluoro-2-(((2R,7aS)-2-fluorotetrahydro-1H-pyrrolizin-7a(5H)-yl)methoxy)pyrido[4,3-d]pyrimidin-7-yl)-5,6-difluoronaphthalen-2-ol], the IC50 came to 0.295 µM.

With `C#Cc1c(F)ccc2cc(O)cc(-c3ccc4c(N5CCC6(CCCS6)CC5)nc(OC[C@@]56CCCN5C[C@H](F)C6)nc4c3F)c12` [Example 109, 5-ethynyl-6-fluoro-4-(8-fluoro-2-(((2R,7aS)-2-fluorotetrahydro-1H-pyrrolizin-7a(5H)-yl)methoxy)-4-(1-thia-8-azaspiro[4.5]decan-8-yl)quinazolin-7-yl)naphthalen-2-ol], the IC50 is more than 2.5 µM.

In the case of `CCc1ccc2cc(O)cc(-c3c4c(c5c(N6C[C@H]7CC[C@@H](C6)N7)nc(OC[C@@]67CCCN6C[C@H](F)C7)nc5c3F)OCO4)n12` [Example 397, 5-(9-((1R,5S)-3,8-diazabicyclo[3.2.1]octan-3-yl)-5-fluoro-7-(((2R,7aS)-2-fluorotetrahydro-1H-pyrrolizin-7a(5H)-yl)methoxy)-[1,3]dioxolo[4,5-f]quinazolin-4-yl)-3-ethylindolizin-7-ol], the IC50 was determined as 0.07 µM.

Take `COC1CCc2cc(O)cc(-c3ncc4c(N5C[C@H]6CC[C@@H](C5)N6)nc(OC[C@@]56CCCN5C[C@H](F)C6)nc4c3F)c21` (stereo partly drawn) [Example 269, 7-(4-((1R,5S)-3,8-diazabicyclo[3.2.1]octan-3-yl)-8-fluoro-2-(((2R,7aS)-2-fluorotetrahydro-1H-pyrrolizin-7a(5H)-yl)methoxy)pyrido[4,3-d]pyrimidin-7-yl)-1-methoxy-2,3-dihydro-1H-inden-5-ol]: the IC50 amounted to 0.03 µM.

Still in this assay, the particulars now being: Homo sapiens, AGS, 72 h, read-out: AGS IC50.
As to `CCC1CCc2cc(O)cc(-c3ncc4c(N5C[C@H]6CC[C@@H](C5)N6)nc(OC[C@@]56CCCN5C[C@H](F)C6)nc4c3F)c21` (stereo partly drawn) [Example 220, 7-(4-((1R,5S)-3,8-diazabicyclo[3.2.1]octan-3-yl)-8-fluoro-2-(((2R,7aS)-2-fluorotetrahydro-1H-pyrrolizin-7a(5H)-yl)methoxy)pyrido[4,3-d]pyrimidin-7-yl)-1-ethyl-2,3-dihydro-1H-inden-5-ol], the IC50 was 0.005 µM.

The record behind these values is US20240300980A1, “HETEROCYCLIC COMPOUNDS AS KRAS INHIBITOR, AND PREPARATION THEREFOR AND USE THEREOF IN TREATMENT” (SHANGHAI KECHOW PHARMA, INC., priority 2021, published 2024).
